For 38 compounds, IC50 cell viability results are on record in the supplement of paper PMC12137928.

The subject of this assay is HCT116. The note with it: 72 h. The gist of the method:
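Each well of the 1536-well plates received 250 HCT116 cells, which attached over 5 h. Luminescence was measured with CellTiter-Glo, scaled with vehicle as 0% and positive control as -100%, and pattern-corrected. A four-parameter Hill fit yielded IC50 and maximal efficacy.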

Molecules are shown by their SMILES. Counter-ions that a name gives are not always drawn.

With `CC1(C)S[C@@H]2[C@H](N3C(=O)[C@@H](c4ccccc4)NC3(C)C)C(=O)N2[C@H]1C(=O)O` [HETACILLIN POTASSIUM], the IC50 cell viability reads like this: (ICRF193 0 nM) greater than 45.8 µM; (ICRF193 200 nM) greater than 45.8 µM.
Take `CCOCC(O)COc1ccc(NC(=O)CC[S+](C)C)cc1` (stereo unspecified) [Suplatast tosylate]: the IC50 cell viability is, setting by setting: (ICRF193 0 nM) greater than 45.8 µM; (ICRF193 200 nM) greater than 45.8 µM.
`O=c1[nH]cnc2c1ncn2[C@@H]1O[C@H](CO)[C@@H](O)[C@H]1O` [(-)-Inosine]: the IC50 cell viability was greater than 45.8 µM (ICRF193 0 nM) and greater than 45.8 µM (ICRF193 200 nM).
For the compound `O=[N+]([O-])O[C@H]1CO[C@H]2[C@@H]1OC[C@H]2O[N+](=O)[O-]` [Isosorbide dinitrate], the IC50 cell viability is, setting by setting: (ICRF193 0 nM) greater than 45.8 µM; (ICRF193 200 nM) greater than 45.8 µM.
For `CC(=O)c1ccc2c(c1)N(CCCN(C)C)c1ccccc1S2` [Acetopromazine maleate], the IC50 cell viability is greater than 45.8 µM (ICRF193 0 nM) and greater than 45.8 µM (ICRF193 200 nM).
Consider `O=[N+]([O-])/N=C1\NCCN1Cc1ccc(Cl)nc1` [Imidacloprid], for which the IC50 cell viability (ICRF193 0 nM) was greater than 45.8 µM and the IC50 cell viability (ICRF193 200 nM) was greater than 45.8 µM.
`CC[C@H]1OC(=O)C[C@@H](O)[C@H](C)[C@@H](O[C@@H]2O[C@H](C)[C@@H](O[C@H]3C[C@@](C)(O)[C@@H](O)[C@H](C)O3)[C@H](N(C)C)[C@H]2O)[C@@H](CC=O)C[C@@H](C)C(=O)/C=C/C(C)=C/[C@@H]1CO[C@@H]1O[C@H](C)[C@@H](O)[C@@H](OC)[C@H]1OC` [TYLOSIN TARTRATE]: the IC50 cell viability is greater than 45.8 µM (ICRF193 0 nM) and greater than 45.8 µM (ICRF193 200 nM).
Regarding `CC(=O)O[C@]1(C(C)=O)CC[C@H]2[C@@H]3C=C(C)C4=CC(=O)CC[C@@H]4[C@H]3CC[C@@]21C` [Nomegestrol acetate], the IC50 cell viability is greater than 45.8 µM (ICRF193 0 nM) and greater than 45.8 µM (ICRF193 200 nM).
Consider `Cn1nnc2c(C(N)=O)ncn2c1=O` [Temozolomide], for which the IC50 cell viability (ICRF193 0 nM) was greater than 45.8 µM and the IC50 cell viability (ICRF193 200 nM) was greater than 45.8 µM.
`COC1=C(OC)C(=O)C(C/C=C(\C)CC/C=C(\C)CC/C=C(\C)CC/C=C(\C)CC/C=C(\C)CC/C=C(\C)CC/C=C(\C)CC/C=C(\C)CC/C=C(\C)CCC=C(C)C)=C(C)C1=O` [Coenzyme Q10]: the IC50 cell viability by setting is: (ICRF193 0 nM) greater than 45.8 µM; (ICRF193 200 nM) greater than 45.8 µM.
With `NCCNCCNCCNCCN` [Tetraethylenepentamine], the IC50 cell viability by setting is: (ICRF193 0 nM) greater than 45.8 µM; (ICRF193 200 nM) greater than 45.8 µM.
For `O=C(c1ccc(F)cc1)C1CCN(CCn2c(=O)[nH]c3ccccc3c2=O)CC1` [Ketanserin], the IC50 cell viability was greater than 45.8 µM (ICRF193 0 nM) and greater than 45.8 µM (ICRF193 200 nM).
For `CC(C)NCCCC1(C(N)=O)c2ccccc2-c2ccccc21` [Indecainide], the IC50 cell viability is greater than 45.8 µM (ICRF193 0 nM) and greater than 45.8 µM (ICRF193 200 nM).
On to `CC(=O)Nc1ccc(OC(=O)c2ccccc2OC(C)=O)cc1` [Benorylate], for which the IC50 cell viability by setting is: (ICRF193 0 nM) greater than 45.8 µM; (ICRF193 200 nM) greater than 45.8 µM.
For the compound `CC(C)NC(C)C` [Diisopropylamine], the IC50 cell viability runs as follows: (ICRF193 0 nM) greater than 45.8 µM; (ICRF193 200 nM) greater than 45.8 µM.
On to `COC(=O)Nc1nc2cc(Sc3ccccc3)ccc2[nH]1` [Fenbendazole], for which the IC50 cell viability is, setting by setting: (ICRF193 0 nM) greater than 45.8 µM; (ICRF193 200 nM) greater than 45.8 µM.
For `CC=CC1=C(C(=O)O)N2C(=O)[C@@H](NC(=O)[C@H](N)c3ccc(O)cc3)[C@H]2SC1` [Cefprozil], the IC50 cell viability (ICRF193 0 nM) is greater than 45.8 µM and the IC50 cell viability (ICRF193 200 nM) was greater than 45.8 µM.
On to `CC(CN(C)C)CN1c2ccccc2Sc2ccccc21` (stereo unspecified) [Trimeprazine tartrate], for which the IC50 cell viability was greater than 45.8 µM (ICRF193 0 nM) and greater than 45.8 µM (ICRF193 200 nM).
For the compound `O=C1CN(/N=C/c2ccc([N+](=O)[O-])o2)C(=O)N1` [Nitrofurantoin], the IC50 cell viability (ICRF193 0 nM) was greater than 45.8 µM and the IC50 cell viability (ICRF193 200 nM) is greater than 45.8 µM.
Take `CCCCOc1cc(C(=O)OCCN(CC)CC)ccc1N` [Benoxinate hydrochloride]: the IC50 cell viability by setting is: (ICRF193 0 nM) greater than 45.8 µM; (ICRF193 200 nM) greater than 45.8 µM.
In the case of `CCNCC(O)c1cccc(O)c1` (stereo unspecified) [Etilefrine hydrochloride], the IC50 cell viability runs as follows: (ICRF193 0 nM) greater than 45.8 µM; (ICRF193 200 nM) greater than 45.8 µM.
Turning to `CN1C(=O)OC(C)(C)C1=O` [Trimethadione], the IC50 cell viability is greater than 45.8 µM (ICRF193 0 nM) and greater than 45.8 µM (ICRF193 200 nM).
`CCOCCn1c(N2CCCN(C)CC2)nc2ccccc21` [Emedastine difumarate]: the IC50 cell viability was greater than 45.8 µM (ICRF193 0 nM) and greater than 45.8 µM (ICRF193 200 nM).
As for `CCCc1c2oc(C(=O)O)cc(=O)c2cc2c(=O)cc(C(=O)O)n(CC)c12` [Nedocromil], the IC50 cell viability reads like this: (ICRF193 0 nM) greater than 45.8 µM; (ICRF193 200 nM) greater than 45.8 µM.
Regarding `O=C(O)C(=O)Nc1cccc(-c2nnn[nH]2)c1` [Acitazanolast], the IC50 cell viability is, setting by setting: (ICRF193 0 nM) greater than 45.8 µM; (ICRF193 200 nM) greater than 45.8 µM.
In the case of `O.O.O.O.O=C([O-])CC(O)(CC(=O)[O-])C(=O)[O-].[Li+].[Li+].[Li+]` [LITHIUM CITRATE], the IC50 cell viability (ICRF193 0 nM) was greater than 45.8 µM and the IC50 cell viability (ICRF193 200 nM) was greater than 45.8 µM.
Turning to `CCn1cc(C(=O)O)c(=O)c2cc(F)c(N3CCNCC3)cc21` [Norfloxacin], the IC50 cell viability reads like this: (ICRF193 0 nM) greater than 45.8 µM; (ICRF193 200 nM) greater than 45.8 µM.
`Cc1cc2c(cc1S(N)(=O)=O)S(=O)(=O)CCC2` [Meticrane]: the IC50 cell viability is, setting by setting: (ICRF193 0 nM) greater than 45.8 µM; (ICRF193 200 nM) greater than 45.8 µM.
Turning to `CC[N+](C)(C)Cc1ccccc1Br` [Bretylium tosylate], the IC50 cell viability is greater than 45.8 µM (ICRF193 0 nM) and greater than 45.8 µM (ICRF193 200 nM).
For `NC(=O)c1cc[n+](CC2=C(C(=O)[O-])N3C(=O)[C@@H](NC(=O)[C@@H](c4ccccc4)S(=O)(=O)O)[C@H]3SC2)cc1` [Cefsulodin Sodium Salt], the IC50 cell viability reads like this: (ICRF193 0 nM) greater than 45.8 µM; (ICRF193 200 nM) greater than 45.8 µM.
Take `Oc1ccc(C(O)CNCCCCCCNCC(O)c2ccc(O)c(O)c2)cc1O` (stereo unspecified) [Hexoprenaline sulfate]: the IC50 cell viability was greater than 45.8 µM (ICRF193 0 nM) and greater than 45.8 µM (ICRF193 200 nM).
Take `COC(=O)C1=C(C)NC(C)=C(C(=O)OC(C)C)C1c1cccc2nonc12` (stereo unspecified) [Isradipine]: the IC50 cell viability reads like this: (ICRF193 0 nM) greater than 45.8 µM; (ICRF193 200 nM) greater than 45.8 µM.
Compound `COC(=O)N[C@H](C(=O)N1CCC[C@H]1C(=O)Nc1ccc([C@@H]2CC[C@@H](c3ccc(NC(=O)[C@@H]4CCCN4C(=O)[C@@H](NC(=O)OC)C(C)C)cc3)N2c2ccc(C(C)(C)C)cc2)cc1)C(C)C` [Ombitasvir] registered an IC50 cell viability (ICRF193 0 nM) greater than 45.8 µM and an IC50 cell viability (ICRF193 200 nM) greater than 45.8 µM.
Take `CCCCCCCCCCOc1cc2c(O)c(C(=O)OCC)cnc2cc1OCC` [Decoquinate]: the IC50 cell viability was greater than 45.8 µM (ICRF193 0 nM) and greater than 45.8 µM (ICRF193 200 nM).
With `c1ccc2c(CC3=NCCN3)cccc2c1` [Naphazoline hydrochloride], the IC50 cell viability by setting is: (ICRF193 0 nM) greater than 45.8 µM; (ICRF193 200 nM) greater than 45.8 µM.
`OC[C@H]1OC(O)[C@H](O)[C@@H](O)[C@@H]1O` (stereo partly specified) [DEXTROSE]: the IC50 cell viability runs as follows: (ICRF193 0 nM) greater than 45.8 µM; (ICRF193 200 nM) greater than 45.8 µM.
Regarding `COc1ccc(CN(C(=O)[C@@H](N)Cc2c(C)cc(C(N)=O)cc2C)[C@@H](C)c2ncc(-c3ccccc3)[nH]2)cc1C(=O)O` [Eluxadoline], the IC50 cell viability was greater than 45.8 µM (ICRF193 0 nM) and greater than 45.8 µM (ICRF193 200 nM).
As to `CC(C)Nc1cccnc1N1CCN(C(=O)c2cc3cc(NS(C)(=O)=O)ccc3[nH]2)CC1` [Delavirdine], the IC50 cell viability reads like this: (ICRF193 0 nM) greater than 45.8 µM; (ICRF193 200 nM) greater than 45.8 µM.
